Where “and” joins values, the source holds several entries; their conditions need not be identical. Identical values can stand only once. Inconclusive results and toxic doses are left out. The calls were made as follows: active = survival T/C of 150% or more; inactive = T/C below 125% in these data. *1 amine or outer side, *2 acyl side, *3 side chain or, on linkers, in order; H or OH if unused. Where a SMILES comes first, the peptide text is derived from it. Bridges are numbered along the chain shown (N, C = ends). Roman numbers before positions name the chains, in order. [ ]: non-standard residue; d: D form. Actinocin(1to9) = Cc1c2oc3c(C)ccc(C(=O)[*:2])c3nc-2c(C(=O)[*:1])c(N)c1=O; NMeV = CN[CH](C(=O)O)C(C)C; Aze = O=C(O)[CH]1CCN1; Sar = CNCC(=O)O
System: CD2F1 mice, ip Colon 26 adenocarcinoma, median survival T/C
Assay: NCI In Vivo Anticancer Drug Screen. Data for tumor model Colon 26 Adenocarcinoma (intraperitoneal) in CD2F1 (CDF1) mice
Conditions: endpoint: median survival time, higher = longer survival
Experimental: The antitumor activity of compounds was measured in mice bearing transplantable tumors. Survival or tumor size were measured and the results are expressed as the measurement made in the treated group (T) divided by the measurement made in the vehicle treated control group (C). The tumor model used in this assay is Colon 26 Adenocarcinoma (intraperitoneal) in CD2F1 (CDF1) mice

[1] = dose: 400.0 mg/kg/injection, schedule: Q04DX003 (ip), vehicle: saline with Tween-80
[2] = dose: 2.0 mg/kg/injection, schedule: Q04DX003 (ip), vehicle: Klucel (hydroxypropylcellulose) (HPC)
[3] = dose: 25.0 mg/kg/injection, schedule: Q04DX003 (ip), vehicle: saline with Tween-80
[4] = dose: 50.0 mg/kg/injection, schedule: Q04DX003 (ip), vehicle: saline with Tween-80
[5] = dose: 100.0 mg/kg/injection, schedule: Q04DX003 (ip), vehicle: saline with Tween-80
[6] = dose: 100.0 mg/kg/injection, schedule: Q04DX003 (ip), vehicle: other

Measured: T/C

Cc1c2oc3c(C)ccc(C(=O)NC4C(=O)NC(C(C)C)C(=O)N5CCCC5C(=O)N(C)CC(=O)N(C)C(C(C)C)C(=O)OC4C)c3nc-2c(C(=O)NC2C(=O)NC(C(C)C)C(=O)N3CCC3C(=O)N(C)CC(=O)N(C)C(C(C)C)C(=O)OC2C)c(N)c1=O (stereo not drawn) (I: TV[Aze][Sar][NMeV] / II: TVP[Sar][NMeV]; ester I:1-I:C, II:1-II:C; linker I:N-II:N via Actinocin(1to9); configuration not given here)
active: dose: 0.65 mg/kg/injection, schedule: Q04DX003 (ip), vehicle: saline + alcohol 151 % of control | dose: 450.0 micrograms/kg/injection, schedule: Q04DX003 (ip), vehicle: saline + alcohol 151 % of control | dose: 750.0 micrograms/kg/injection, schedule: Q04DX003 (ip), vehicle: saline + alcohol 157 % of control
inactive: dose: 0.08 mg/kg/injection, schedule: Q04DX003 (ip), vehicle: saline + alcohol 100 % of control | dose: 0.14 mg/kg/injection, schedule: Q04DX003 (ip), vehicle: saline + alcohol 123 % of control | dose: 0.23 mg/kg/injection, schedule: Q04DX003 (ip), vehicle: saline + alcohol 119 % of control | dose: 270.0 micrograms/kg/injection, schedule: Q04DX003 (ip), vehicle: saline + alcohol 108 % of control | dose: 375.0 micrograms/kg/injection, schedule: Q01DX001 (ip), vehicle: saline + alcohol 119 % of control | dose: 750.0 micrograms/kg/injection, schedule: Q01DX001 (ip), vehicle: saline + alcohol 102 % of control

CCOC(=O)CNC(=O)CCCCSc1ncnc2nc[nH]c12
inactive: [1] 104 % of control | dose: 800.0 mg/kg/injection, schedule: Q04DX003 (ip), vehicle: saline with Tween-80 97 % of control | dose: 1600.0 mg/kg/injection, schedule: Q04DX003 (ip), vehicle: saline with Tween-80 88 % of control

Nc1ncnc2c1ccn2C1OC(CO)C(O)C1O (stereo not drawn)
inactive: dose: 0.5 mg/kg/injection, schedule: Q04DX003 (ip), vehicle: Klucel (hydroxypropylcellulose) (HPC) 98 % of control | dose: 1.0 mg/kg/injection, schedule: Q04DX003 (ip), vehicle: Klucel (hydroxypropylcellulose) (HPC) 119 % of control | [2] 118 % of control | dose: 4.0 mg/kg/injection, schedule: Q04DX003 (ip), vehicle: Klucel (hydroxypropylcellulose) (HPC) 115 % of control

COC(=O)Nc1cccc(-c2nc3ccc(NC(=O)OC)cc3c(=O)n2-c2ccccc2)c1
active: dose: 64.0 mg/kg/injection, schedule: Q04DX003 (ip), vehicle: Klucel (hydroxypropylcellulose) (HPC) 171 % of control

CCC1(O)CC(OC2CC(N(C)C)C(OC3CC(O)C(OC4CCC(=O)C(C)O4)C(C)O3)C(C)O2)c2c(cc3c(c2O)C(=O)c2c(O)ccc(O)c2C3=O)C1C(=O)OC (stereo not drawn)
inactive: dose: 0.38 mg/kg/injection, schedule: Q04DX003 (ip), vehicle: saline with Tween-80 103 % of control | dose: 0.75 mg/kg/injection, schedule: Q04DX003 (ip), vehicle: saline with Tween-80 117 % of control | dose: 1.5 mg/kg/injection, schedule: Q04DX003 (ip), vehicle: saline with Tween-80 123 % of control | dose: 3.0 mg/kg/injection, schedule: Q04DX003 (ip), vehicle: saline with Tween-80 108 % of control

COc1ccc(CC2C(=O)NC(C)C(=O)N(C)C3C(=O)N(C)C(Cc4ccc(O)c(c4)Oc4ccc(cc4)C3O)C(=O)NC(C)C(=O)NC(C)C(=O)N2C)cc1 (stereo not drawn) (tested in a mixture with another compound)
inactive: dose: 0.5 mg/kg/injection, schedule: Q04DX003 (ip), vehicle: saline 98 % of control | dose: 1.0 mg/kg/injection, schedule: Q04DX003 (ip), vehicle: saline 98 % of control | dose: 2.0 mg/kg/injection, schedule: Q04DX003 (ip), vehicle: saline 99 % of control

CCSC(=O)N1c2ccc(OC)cc2C=CC1C#N (stereo not drawn)
inactive: dose: 12.5 mg/kg/injection, schedule: Q04DX003 (ip), vehicle: saline with Tween-80 106 % of control | [3] 104 % of control | [4] 110 % of control | [5] 107 % of control | dose: 175.0 mg/kg/injection, schedule: Q04DX002 (ip), vehicle: saline with Tween-80 110 % of control | dose: 200.0 mg/kg/injection, schedule: Q04DX003 (ip), vehicle: saline with Tween-80 109 % of control | dose: 350.0 mg/kg/injection, schedule: Q04DX002 (ip), vehicle: saline with Tween-80 124 % of control | [1] 115 % of control | dose: 700.0 mg/kg/injection, schedule: Q04DX002 (ip), vehicle: saline with Tween-80 100 % of control | dose: 1400.0 mg/kg/injection, schedule: Q04DX002 (ip), vehicle: saline with Tween-80 98 % of control

Cc1c(N)nc([C@H](CC(N)=O)NC[C@H](N)C(N)=O)nc1C(=O)N[C@H](C(=O)N[C@H](C)[C@@H](O)[C@H](C)C(=O)N[C@H](C(=O)NCCc1nc(-c2nc(C(=O)NCCC[S+](C)C)cs2)cs1)[C@@H](C)O)C(OC1OC(CO)C(O)C(O)C1OC1OC(CO)C(O)C(OC(N)=O)C1O)c1cnc[nH]1 (stereo partly drawn)
inactive: dose: 1.0 mg/kg/injection, schedule: Q01DX009 (ip), vehicle: saline 115 % of control | dose: 2.0 mg/kg/injection, schedule: Q01DX009 (ip), vehicle: saline 111 % of control | dose: 4.0 mg/kg/injection, schedule: Q01DX009 (ip), vehicle: saline 107 % of control | dose: 8.0 mg/kg/injection, schedule: Q01DX009 (ip), vehicle: saline 111 % of control | dose: 16.0 mg/kg/injection, schedule: Q01DX009 (ip), vehicle: saline 111 % of control

CN(C)CCNc1ccc(O)c2c1C(=O)c1ccccc1C2=O
inactive: dose: 10.0 mg/kg/injection, schedule: Q01DX009 (ip), vehicle: acid diluted with saline 121 % of control | dose: 20.0 mg/kg/injection, schedule: Q01DX009 (ip), vehicle: acid diluted with saline 104 % of control and 115 % of control | dose: 40.0 mg/kg/injection, schedule: Q01DX009 (ip), vehicle: acid diluted with saline 103 % of control | dose: 80.0 mg/kg/injection, schedule: Q01DX009 (ip), vehicle: acid diluted with saline 115 % of control and 120 % of control

CC/C(=C(/CC)c1ccc(O)cc1)c1ccc(O)cc1
inactive: [3] 91 % of control | [4] 103 % of control | [5] 89 % of control

O=c1c(O)c(-c2ccc(O)c(O)c2)oc2cc(O)cc(O)c12
inactive: [6] 89 % of control | dose: 800.0 mg/kg/injection, schedule: Q04DX003 (ip), vehicle: other 87 % of control

CN(N=O)C(=O)N[C@@H](C=O)[C@@H](O)[C@H](O)[C@H](O)CO
inactive: dose: 12.5 mg/kg/injection, schedule: Q04DX003 (ip), vehicle: other 113 % of control | dose: 25.0 mg/kg/injection, schedule: Q04DX003 (ip), vehicle: other 110 % of control | dose: 50.0 mg/kg/injection, schedule: Q04DX003 (ip), vehicle: other 118 % of control | [6] 124 % of control | dose: 200.0 mg/kg/injection, schedule: Q04DX003 (ip), vehicle: other 123 % of control

COC(C(=O)C(O)C(C)O)C1CC2C=C3C=C(OC4CC(OC5CC(O)C(OC)C(C)O5)C(OC(C)=O)C(C)O4)C(C)C(=O)C3=C(O)C2=C(O)C1OC1CC(OC2CC(OC3CC(C)(O)C(O)C(C)O3)C(O)C(C)O2)C(O)C(C)O1 (stereo not drawn)
inactive: dose: 0.5 mg/kg/injection, schedule: Q04DX003 (ip), vehicle: saline with Tween-80 100 % of control | dose: 1.0 mg/kg/injection, schedule: Q04DX003 (ip), vehicle: saline with Tween-80 99 % of control | dose: 2.0 mg/kg/injection, schedule: Q04DX003 (ip), vehicle: saline with Tween-80 99 % of control | dose: 4.0 mg/kg/injection, schedule: Q04DX003 (ip), vehicle: saline with Tween-80 96 % of control | dose: 8.0 mg/kg/injection, schedule: Q04DX003 (ip), vehicle: saline with Tween-80 102 % of control

O=C1c2ccccc2C(=O)c2c(NCCN3CCNCC3)ccc(NCCN3CCNCC3)c21
inactive: dose: 4.0 mg/kg/injection, schedule: Q01DX009 (ip), vehicle: acid diluted with saline 106 % of control | dose: 8.0 mg/kg/injection, schedule: Q01DX009 (ip), vehicle: acid diluted with saline 114 % of control | dose: 16.0 mg/kg/injection, schedule: Q01DX009 (ip), vehicle: acid diluted with saline 114 % of control

COc1cccc2c1C(=O)c1c(O)c3c(c(O)c1C2=O)C[C@@](O)(C(=O)COC(=O)c1cccnc1)C[C@@H]3OC1CC(N)C(O)C(C)O1 (stereo partly drawn)
inactive: dose: 5.5 mg/kg/injection, schedule: Q07DX003 (iv), vehicle: other 113 % of control | dose: 8.5 mg/kg/injection, schedule: Q07DX003 (iv), vehicle: other 108 % of control | dose: 13.1 mg/kg/injection, schedule: Q07DX003 (iv), vehicle: other 114 % of control | dose: 17.0 mg/kg/injection, schedule: Q07DX002 (iv), vehicle: alkali diluted with saline 99 % of control | dose: 20.3 mg/kg/injection, schedule: Q07DX003 (iv), vehicle: other 115 % of control | dose: 26.0 mg/kg/injection, schedule: Q07DX002 (iv), vehicle: alkali diluted with saline 94 % of control

NC(=O)c1cn(C2OC(CO)C(O)C2O)c2ncnc(N)c12 (stereo not drawn)
active: [2] 156 % of control

Source: PubChem BioAssay AID210 (DTP/NCI, 2004)
